Measured values from paper PMC3493272, “CYP98A22, a phenolic ester 3’-hydroxylase specialized in the synthesis of chlorogenic acid, as a new tool for enhancing the furanocoumarin concentration in Ruta graveolens” (BMC Plant Biology, 2012).

Columns and labels:
Assay type in all cases: biochemical
CYP98A3 [1] = target: T1, CYP98A3 (Arabidopsis thaliana, UniProt O22203); test: HPLC and LC-MS of caffeoyl quinate formed by plant microsomes; details: 100 μM substrate; 0.2 mM NADPH; pH 7.0; 28 °C; microsomes from N. benthamiana expressing the enzyme
T1 construct: full-length, untagged; transient expression in Nicotiana benthamiana leaves with TBSV P19, leaf microsomes (also yeast WAT11 microsomes)
T1 sequence (O22203 1-508): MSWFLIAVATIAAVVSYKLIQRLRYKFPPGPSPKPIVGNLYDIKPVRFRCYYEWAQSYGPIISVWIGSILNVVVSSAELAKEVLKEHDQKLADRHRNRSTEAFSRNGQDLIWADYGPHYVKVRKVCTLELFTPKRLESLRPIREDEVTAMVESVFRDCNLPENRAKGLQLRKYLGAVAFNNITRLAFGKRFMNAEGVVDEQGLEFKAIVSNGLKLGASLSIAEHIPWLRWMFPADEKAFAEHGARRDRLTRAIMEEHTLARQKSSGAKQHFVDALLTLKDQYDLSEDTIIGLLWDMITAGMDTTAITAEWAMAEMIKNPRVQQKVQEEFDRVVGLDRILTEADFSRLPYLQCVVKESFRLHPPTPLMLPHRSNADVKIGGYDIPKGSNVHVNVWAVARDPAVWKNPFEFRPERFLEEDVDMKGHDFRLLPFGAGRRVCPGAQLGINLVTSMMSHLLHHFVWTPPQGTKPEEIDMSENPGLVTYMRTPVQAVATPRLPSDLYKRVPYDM

CYP98A22 [2] = target: T2, CYP98A22 (Ruta graveolens, UniProt H9LJF9); test: LC-MS of caffeoyl quinate formed by plant microsomes; details: 0.2 mM NADPH; 20 mM phosphate pH 7.0; 28 °C; 30 min; microsomes from N. benthamiana expressing the enzyme
T2 construct: full-length, 508 residues, untagged; transient expression in Nicotiana benthamiana leaves with TBSV P19, leaf microsomes
Description: LC-MS of caffeoyl quinate formed by plant microsomes on CYP98A22

CYP98A22 [3] = target: T2, CYP98A22; test: LC-MS of caffeoyl shikimate formed by plant microsomes; details: 0.2 mM NADPH; 20 mM phosphate pH 7.0; 28 °C; 30 min; microsomes from N. benthamiana expressing the enzyme
Description: LC-MS of caffeoyl shikimate formed by plant microsomes on CYP98A22

CYP98A3 [4] = target: T1, CYP98A3; test: HPLC and LC-MS of caffeoyl shikimate formed by plant microsomes; details: 100 μM substrate; 0.2 mM NADPH; pH 7.0; 28 °C; microsomes from N. benthamiana expressing the enzyme

T2 sequence (H9LJF9 entry or part of it): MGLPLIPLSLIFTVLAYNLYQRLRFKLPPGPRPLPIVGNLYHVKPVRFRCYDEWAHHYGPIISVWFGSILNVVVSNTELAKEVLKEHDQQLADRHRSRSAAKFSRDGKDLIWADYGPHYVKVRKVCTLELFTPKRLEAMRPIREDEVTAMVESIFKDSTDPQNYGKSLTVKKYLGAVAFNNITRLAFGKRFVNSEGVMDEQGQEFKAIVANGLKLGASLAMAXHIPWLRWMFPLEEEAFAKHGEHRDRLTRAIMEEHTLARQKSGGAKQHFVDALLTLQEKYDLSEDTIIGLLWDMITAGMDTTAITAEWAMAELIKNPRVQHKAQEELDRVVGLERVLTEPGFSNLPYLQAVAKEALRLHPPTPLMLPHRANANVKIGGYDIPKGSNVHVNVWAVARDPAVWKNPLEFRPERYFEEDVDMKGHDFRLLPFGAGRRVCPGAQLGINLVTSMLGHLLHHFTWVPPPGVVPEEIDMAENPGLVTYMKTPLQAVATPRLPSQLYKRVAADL

SMILES	HPLC and LC-MS of caffeoyl quinate formed by plant microsomes (CYP98A3 [1])	Km (CYP98A22 [2])	Km (CYP98A22 [3])	HPLC and LC-MS of caffeoyl shikimate formed by plant microsomes (CYP98A3 [4])
O=C(/C=C/c1ccc(O)cc1)O[C@@H]1C[C@](O)(C(=O)O)C[C@@H](O)[C@H]1O [p-coumaroyl quinate]	both p-coumaroyl quinate and p-coumaroyl shikimate were hydroxylated to their caffeic counterparts	7 ± 5 µM		
O=C(/C=C/c1ccc(O)cc1)O[C@@H]1CC(C(=O)O)=C[C@@H](O)[C@H]1O [p-coumaroyl shikimate]			24 ± 7 µM	both p-coumaroyl quinate and p-coumaroyl shikimate were hydroxylated to their caffeic counterparts
